The text below walks through data of patent US9850183B2, “Conjugates derived from non-steroidal anti-inflammatory drugs and methods of use thereof in imaging” (Reiley Pharmaceuticals, Inc., priority 2014, dated 2017).

One assay deals with T1, human COX-2 (Homo sapiens, UniProt P35354).
T1 construct: purchased Cayman Chemical Co., Ann Arbor, Mich., USA 701080
T1 sequence (P35354 18-604): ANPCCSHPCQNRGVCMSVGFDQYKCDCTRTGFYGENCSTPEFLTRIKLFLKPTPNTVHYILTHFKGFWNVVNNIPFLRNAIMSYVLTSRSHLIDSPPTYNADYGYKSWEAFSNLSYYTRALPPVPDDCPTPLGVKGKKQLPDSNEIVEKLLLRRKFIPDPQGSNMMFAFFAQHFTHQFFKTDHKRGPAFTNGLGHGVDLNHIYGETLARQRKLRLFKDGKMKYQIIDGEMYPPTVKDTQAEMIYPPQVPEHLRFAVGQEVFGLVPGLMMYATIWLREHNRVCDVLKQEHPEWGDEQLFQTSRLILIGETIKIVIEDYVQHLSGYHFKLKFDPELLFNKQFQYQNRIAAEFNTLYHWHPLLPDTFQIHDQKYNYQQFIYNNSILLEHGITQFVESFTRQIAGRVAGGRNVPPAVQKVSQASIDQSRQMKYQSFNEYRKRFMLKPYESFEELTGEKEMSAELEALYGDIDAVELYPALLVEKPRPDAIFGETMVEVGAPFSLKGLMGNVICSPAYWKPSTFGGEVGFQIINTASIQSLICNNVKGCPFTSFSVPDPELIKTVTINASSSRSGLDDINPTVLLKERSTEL
The assay can be described thus: COX-2 enzyme assay (EIA kit, PGF2α readout). The format is biochemical. The procedure:
(§1) The ability of compounds to inhibit ovine COX-1 and human COX-2 was determined using a commercially available enzyme immunoassay (EIA) kit (catalog no. 701090 (COX-1); 701080 (COX-2) Cayman Chemical Co., Ann Arbor, Mich., USA) according to the manufacturer's protocol. COX catalyzes the first step in the biosynthesis of AA to PGH2. PGF2α, produced from PGH2 by reduction with stannous chloride, was measured by EIA (ACE™ competitive EIA, Cayman Chemical, Ann Arbor, Mich., USA). Briefly, to a series of supplied reaction buffer solutions [960 μl 0.1 M Tris-HCl (pH 8.0) containing 5 mM EDTA and 2 mM phenol] with either COX-1 or COX-2 (10 μl) enzyme in the presence of heme (10 μl), 10 μl of various concentrations of test drug solutions were added. These solutions were incubated for 15 min at 37° C. and subsequently 10 μl AA solution (100 μM) was added. The COX reaction was stopped by the addition of 30 μl stannus chloride after 2 min, mixed immediately, supernatants were 2000 fold diluted. The produced PGF2α was measured by EIA. This assay is based on the competition between PGs and a PG-acetylcholinesterase conjugate (PG tracer) for a limited amount of PG antiserum. The amount of PG tracer that is able to bind to the PG antiserum is inversely proportional to the concentration of PGs in the wells since the concentration of the PG tracer is held at a constant while the concentration of PGs varies. The specific antiserum-PG complex bound to a mouse anti-rabbit IgG that had been previously attached to the well. The plate was washed to remove any unbound reagents and 200 μl Ellman's reagent (5,5′-dithiobis-(2-nitrobenzoic acid), which contains the substrate to acetylcholine esterase, was added to the well. The product of this enzymatic reaction generates a distinct yellow color that absorbs at 406 nm. The intensity of this color, determined by spectrophotometry, is proportional to the amount of PG tracer bound to the well, which is inversely proportional to the amount of PGs present in the well during the incubation. Percent inhibition was calculated by the comparison of the compounds treated to the various control incubations.
(§2) Dose-response curves were generated using XLFit (IDBS, Surrey, UK) or Prism (GraphPad Software, La Jolla, Calif., US) to calculate IC50 values for each compound tested.

A further assay concerns the target T2, COX-2 (Mus musculus, UniProt Q05769).
T2 construct: endogenous in cells; host or cells: RAW264.7 murine macrophages, stimulated with LPS and IFN-g
T2 sequence (Q05769 18-604): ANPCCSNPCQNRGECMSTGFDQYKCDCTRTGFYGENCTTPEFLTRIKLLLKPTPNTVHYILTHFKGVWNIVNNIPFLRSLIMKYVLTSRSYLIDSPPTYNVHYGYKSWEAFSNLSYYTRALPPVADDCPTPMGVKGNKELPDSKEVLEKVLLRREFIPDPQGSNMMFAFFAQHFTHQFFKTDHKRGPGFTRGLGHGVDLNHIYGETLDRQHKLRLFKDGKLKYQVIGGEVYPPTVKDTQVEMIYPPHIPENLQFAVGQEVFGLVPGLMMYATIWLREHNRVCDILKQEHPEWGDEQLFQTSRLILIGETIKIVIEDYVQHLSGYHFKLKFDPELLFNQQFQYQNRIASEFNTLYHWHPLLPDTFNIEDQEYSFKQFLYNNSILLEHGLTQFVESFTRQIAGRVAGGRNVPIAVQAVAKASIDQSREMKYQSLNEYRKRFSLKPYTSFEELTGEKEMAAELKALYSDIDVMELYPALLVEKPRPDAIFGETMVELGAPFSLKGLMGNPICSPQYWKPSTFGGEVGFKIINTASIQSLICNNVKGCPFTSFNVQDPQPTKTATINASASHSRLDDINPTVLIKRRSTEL
The experiment in a line: Cell-based COX-2 assay (PGE2 in LPS/IFN-g stimulated RAW264.7 cells). To be noted: RAW264.7 murine macrophages, 1 μg/ml LPS and 10 U/ml IFN-g for 7 h, PGE2 readout. The method, then:
RAW264.7 murine macrophages were obtained from the Cell Bank of Shanghai Institute of Biochemistry and Cell Biology, Chinese Academy of Sciences (Shanghai, China) and cultured in Dulbecco's modified Eagle's medium containing 100 U/ml penicillin and 100 μg/ml streptomycin at 37° C. in 5% CO2.
RAW264.7 cells were plated at a density of 2.5×10^5/ml cells in a 96-well plate with 0.1 ml of culture medium per well and cultured overnight. The cells were pre-incubated for 30 min with various doses of compounds and stimulated for 7 h with 1 μg/ml LPS and 10 U/ml IFN-g. The cell culture supernatants were collected immediately following treatment and centrifuged at 1,000 rpm for 5 min to remove the particulate matter. PGE2 was determined using a Prostaglandin E2 assay kit (catalog no. 62P2APEB; Cisbio Co.,). 10 μL of cell supernatant was transferred to a 384-well low volume plate (e.g. Corning® 3544), 5 μL of PGE2-d2 was added, followed by 5 μL anti-PGE2 Cryptate as a negative control. Replace the standard by 10 μL of diluent and PGE2-d2 by 5 μL of reconstitution buffer, Cal0 (for positive control), replace the standard by 10 μL of diluent. Incubate at 4° C. overnight. After centrifuging at 1,000 rpm for 1 min, the dual fluorescence emissions of 615 and 665 nm with a 320 nm excitation were measured using an Envision plate reader (Perkin Elmer, Shelton, Conn.). The results are expressed as the ratio of 665 nm/615 nm emissions.
as §2

Another assay has as its target T3, ovine COX-1 (Ovis aries, UniProt P05979).
T3 sequence (P05979 25-600): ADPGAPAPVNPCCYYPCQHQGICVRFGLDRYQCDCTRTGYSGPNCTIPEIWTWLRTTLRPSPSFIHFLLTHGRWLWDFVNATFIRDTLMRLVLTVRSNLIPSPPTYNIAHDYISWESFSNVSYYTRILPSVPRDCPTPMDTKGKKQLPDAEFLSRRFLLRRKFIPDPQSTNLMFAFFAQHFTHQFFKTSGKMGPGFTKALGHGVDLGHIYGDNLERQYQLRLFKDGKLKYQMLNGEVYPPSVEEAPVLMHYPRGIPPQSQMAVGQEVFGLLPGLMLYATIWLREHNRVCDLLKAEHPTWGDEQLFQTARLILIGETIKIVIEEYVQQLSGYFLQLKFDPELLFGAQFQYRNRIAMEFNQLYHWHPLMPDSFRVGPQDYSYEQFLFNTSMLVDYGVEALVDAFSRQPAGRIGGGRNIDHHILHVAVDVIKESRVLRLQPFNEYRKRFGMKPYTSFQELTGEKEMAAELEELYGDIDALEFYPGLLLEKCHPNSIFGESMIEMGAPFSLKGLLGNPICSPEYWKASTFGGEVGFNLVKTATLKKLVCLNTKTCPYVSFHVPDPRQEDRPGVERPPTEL
The experiment in a line: biochemical. The method, then:
as §1, §2

Setting [1] is: human COX-2 enzyme, EIA, 15 min pre-incubation at 37° C., read-out: COX-2 IC50 (μM) enzyme.
The mark [2] stands for this setting: ovine COX-1 enzyme, EIA, read-out: COX-1 IC50 (μm) enzyme.

Molecules are shown by their SMILES. Where two headings read alike, the source gives them in different places.

Take `COc1ccc2c(c1)c(CC(=O)NCCCCCCCNC(=O)[c-]1cccc1)c(C)n2C(=O)c1ccc(Cl)cc1.[C-]#[O+].[C-]#[O+].[C-]#[O+].[Re+]` [Compound 246]: the figures for the IC50 at human COX-2 (setting [1]), against COX-2 and at ovine COX-1 (setting [2]) were 0.1 µM, 0.2 µM and over 30000 nM, respectively.

Regarding `COc1ccc2c(c1)c(CC(=O)NCCCCCC[N+]13CC[S][Re-]14(=[O])[S]CC[N]4C(=O)C3)c(C)n2C(=O)c1ccc(Cl)cc1` (stereo not drawn) [Compound 260], the IC50 (usually the concentration at which inhibition is half-maximal) at human COX-2 (setting [1]) was 0.3 µM; against COX-2, 0.2 µM; at ovine COX-1 (setting [2]) it was over 30000 nM.

In the case of `COc1ccc2c(c1)c(CC(=O)NCCCCCC[N+]13CC[S][Re-]14(=[O])[S]CC[N]4CC3)c(C)n2C(=O)c1ccc(Cl)cc1` (stereo not drawn) [Compound 275], the IC50 was 0.7 µM at human COX-2 (setting [1]), 0.2 µM against COX-2 and over 30000 nM at ovine COX-1 (setting [2]).

`COc1ccc2c(c1)c(CC(=O)NCCCCCCC[N+]13CC[S][Re-]14(=[O])[S]CC[N]4CC3)c(C)n2C(=O)c1ccc(Cl)cc1` (stereo not drawn) [Compound 305]: the IC50 on human COX-2 was 0.3 µM; at COX-2, 0.1 µM; at ovine COX-1 it was over 30000 nM.

With `COc1ccc2c(c1)c(CC(=O)NCCCOCCC[N+]13CC[S][Re-]14(=[O])[S]CC[N]4CC3)c(C)n2C(=O)c1ccc(Cl)cc1` (stereo not drawn) [Compound 306], the values for the IC50 at human COX-2 (setting [1]), against COX-2 and on ovine COX-1 (setting [2]) were 0.7 µM, 0.2 µM and over 30000 nM, respectively.
